From patent publication US20070149535A1, “Protein kinase inhibitors” (ONCALIS AG, priority 2004, published 2007)

Columns and labels:
Test in all cases: Yeast growth assay, specificity profiling;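 on EGFR (L858R) growth restoration: Parenthesized + marks a result obtained in a different yeast background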
Type in all cases: cell-based
Design in all cases: key: “−” indicates no growth restoration i.e. no activity against the particular kinase; “+”, “++”, and “+++” indicate activity detected by restoration of growth, classified into three categories of potency; “+”, “++”, and “+++” indicate activity detected by restoration of growth, classified into three categories of potency; “+”, “++”, and “+++” indicate activity detected by restoration of growth, classified into three categories of potency
Conditions in all cases: 7 concentrations between 0.2 and 100 μM
[1] = target: T1, FGFR-3 (Homo sapiens, UniProt P22607)
T1 construct: expressed in transfected cells; host or cells: yeast
T1 sequence (P22607 23-806): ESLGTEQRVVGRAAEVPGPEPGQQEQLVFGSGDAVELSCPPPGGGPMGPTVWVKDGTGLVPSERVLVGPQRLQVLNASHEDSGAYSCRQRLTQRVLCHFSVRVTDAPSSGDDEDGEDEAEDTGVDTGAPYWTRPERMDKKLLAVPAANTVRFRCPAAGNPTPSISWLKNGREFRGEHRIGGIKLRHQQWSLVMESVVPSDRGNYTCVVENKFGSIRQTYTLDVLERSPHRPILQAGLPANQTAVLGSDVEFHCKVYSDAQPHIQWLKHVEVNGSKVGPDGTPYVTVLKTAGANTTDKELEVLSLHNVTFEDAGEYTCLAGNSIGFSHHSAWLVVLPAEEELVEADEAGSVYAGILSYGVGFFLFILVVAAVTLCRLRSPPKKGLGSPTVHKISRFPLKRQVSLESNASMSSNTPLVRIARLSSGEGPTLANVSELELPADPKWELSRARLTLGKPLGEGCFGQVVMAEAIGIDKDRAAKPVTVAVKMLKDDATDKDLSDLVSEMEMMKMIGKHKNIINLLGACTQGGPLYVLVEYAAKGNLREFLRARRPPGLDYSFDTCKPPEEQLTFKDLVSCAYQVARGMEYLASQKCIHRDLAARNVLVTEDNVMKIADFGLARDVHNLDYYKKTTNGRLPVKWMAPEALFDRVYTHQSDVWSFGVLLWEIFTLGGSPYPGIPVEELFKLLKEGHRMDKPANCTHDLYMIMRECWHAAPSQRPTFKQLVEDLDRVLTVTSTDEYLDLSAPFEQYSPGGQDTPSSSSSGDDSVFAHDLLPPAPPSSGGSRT
Outline: (§1)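 Steps: yeast with RTK plasmid grown in glucose medium; diluted into galactose medium to induce the kinase; 7 compound concentrations, 0.2–100 μM, added; growth restoration recorded and binned into three potency classes or no activity.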

[2] = target: T2, FLT3 (Homo sapiens, UniProt P36888)
T2 construct: expressed in transfected cells; host or cells: yeast
T2 sequence (P36888 27-993): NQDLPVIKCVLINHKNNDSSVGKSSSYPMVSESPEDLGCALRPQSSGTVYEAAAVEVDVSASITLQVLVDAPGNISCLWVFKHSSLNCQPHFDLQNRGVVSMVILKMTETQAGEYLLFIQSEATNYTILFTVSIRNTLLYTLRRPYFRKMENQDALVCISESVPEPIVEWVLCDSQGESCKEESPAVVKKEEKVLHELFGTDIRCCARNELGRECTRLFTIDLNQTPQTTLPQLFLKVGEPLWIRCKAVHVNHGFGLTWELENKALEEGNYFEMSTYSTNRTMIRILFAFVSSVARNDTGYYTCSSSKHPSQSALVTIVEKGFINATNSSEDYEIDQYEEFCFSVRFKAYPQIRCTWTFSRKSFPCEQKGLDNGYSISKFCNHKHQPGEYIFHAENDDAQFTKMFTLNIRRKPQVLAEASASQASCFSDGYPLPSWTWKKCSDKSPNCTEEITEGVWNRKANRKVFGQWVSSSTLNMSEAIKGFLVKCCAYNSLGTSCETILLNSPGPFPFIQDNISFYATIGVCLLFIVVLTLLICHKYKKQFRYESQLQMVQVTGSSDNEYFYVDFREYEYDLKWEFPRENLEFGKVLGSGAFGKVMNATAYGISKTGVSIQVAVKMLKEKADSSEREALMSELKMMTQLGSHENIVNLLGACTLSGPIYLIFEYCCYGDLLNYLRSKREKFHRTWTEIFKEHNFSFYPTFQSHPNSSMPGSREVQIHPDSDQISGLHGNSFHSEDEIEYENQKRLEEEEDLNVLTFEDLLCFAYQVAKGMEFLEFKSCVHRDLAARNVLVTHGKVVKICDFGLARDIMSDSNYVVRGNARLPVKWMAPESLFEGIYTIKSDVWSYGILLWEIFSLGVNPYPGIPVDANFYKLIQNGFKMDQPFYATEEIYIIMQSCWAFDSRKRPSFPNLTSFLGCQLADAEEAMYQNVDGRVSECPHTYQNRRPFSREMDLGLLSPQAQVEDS
Outline: as §1

[3] = target: T3, EGFR (L858R) (Homo sapiens, UniProt P00533, L858R);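 further: Parenthesized + marks a result obtained in a different yeast background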
T3 construct: expressed in transfected cells; host or cells: yeast
Outline: as §1

[4] = target: T4, KIT (Homo sapiens, UniProt P10721)
T4 construct: expressed in transfected cells; host or cells: yeast
T4 sequence (P10721 26-976): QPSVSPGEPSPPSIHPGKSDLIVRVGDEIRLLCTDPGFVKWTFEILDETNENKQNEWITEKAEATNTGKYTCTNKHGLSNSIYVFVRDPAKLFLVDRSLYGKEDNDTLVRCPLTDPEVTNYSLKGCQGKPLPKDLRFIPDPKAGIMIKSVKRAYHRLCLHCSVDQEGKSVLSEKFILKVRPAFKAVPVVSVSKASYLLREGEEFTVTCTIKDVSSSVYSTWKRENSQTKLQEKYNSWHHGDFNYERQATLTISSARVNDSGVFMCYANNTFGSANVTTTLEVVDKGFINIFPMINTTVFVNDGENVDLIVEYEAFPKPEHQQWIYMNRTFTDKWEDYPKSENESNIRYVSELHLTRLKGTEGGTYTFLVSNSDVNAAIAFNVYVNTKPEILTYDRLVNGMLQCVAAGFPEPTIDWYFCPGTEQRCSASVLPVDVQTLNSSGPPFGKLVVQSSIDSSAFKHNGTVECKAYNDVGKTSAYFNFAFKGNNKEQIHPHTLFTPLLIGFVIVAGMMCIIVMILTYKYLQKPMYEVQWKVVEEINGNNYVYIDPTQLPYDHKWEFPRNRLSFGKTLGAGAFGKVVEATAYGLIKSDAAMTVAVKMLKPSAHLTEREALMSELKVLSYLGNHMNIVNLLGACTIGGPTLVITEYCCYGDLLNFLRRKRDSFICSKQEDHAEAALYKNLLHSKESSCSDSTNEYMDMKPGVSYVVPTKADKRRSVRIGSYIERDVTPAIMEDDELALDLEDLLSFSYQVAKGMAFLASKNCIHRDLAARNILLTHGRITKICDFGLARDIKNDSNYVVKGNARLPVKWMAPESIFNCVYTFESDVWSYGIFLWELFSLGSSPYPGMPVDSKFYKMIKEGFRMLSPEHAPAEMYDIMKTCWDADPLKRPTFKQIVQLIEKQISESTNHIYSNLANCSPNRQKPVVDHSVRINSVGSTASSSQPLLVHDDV
Outline: as §1

[5] = target: T5, FGFR-1 (Homo sapiens, UniProt P11362)
T5 construct: expressed in transfected cells; host or cells: yeast
T5 sequence (P11362 22-822): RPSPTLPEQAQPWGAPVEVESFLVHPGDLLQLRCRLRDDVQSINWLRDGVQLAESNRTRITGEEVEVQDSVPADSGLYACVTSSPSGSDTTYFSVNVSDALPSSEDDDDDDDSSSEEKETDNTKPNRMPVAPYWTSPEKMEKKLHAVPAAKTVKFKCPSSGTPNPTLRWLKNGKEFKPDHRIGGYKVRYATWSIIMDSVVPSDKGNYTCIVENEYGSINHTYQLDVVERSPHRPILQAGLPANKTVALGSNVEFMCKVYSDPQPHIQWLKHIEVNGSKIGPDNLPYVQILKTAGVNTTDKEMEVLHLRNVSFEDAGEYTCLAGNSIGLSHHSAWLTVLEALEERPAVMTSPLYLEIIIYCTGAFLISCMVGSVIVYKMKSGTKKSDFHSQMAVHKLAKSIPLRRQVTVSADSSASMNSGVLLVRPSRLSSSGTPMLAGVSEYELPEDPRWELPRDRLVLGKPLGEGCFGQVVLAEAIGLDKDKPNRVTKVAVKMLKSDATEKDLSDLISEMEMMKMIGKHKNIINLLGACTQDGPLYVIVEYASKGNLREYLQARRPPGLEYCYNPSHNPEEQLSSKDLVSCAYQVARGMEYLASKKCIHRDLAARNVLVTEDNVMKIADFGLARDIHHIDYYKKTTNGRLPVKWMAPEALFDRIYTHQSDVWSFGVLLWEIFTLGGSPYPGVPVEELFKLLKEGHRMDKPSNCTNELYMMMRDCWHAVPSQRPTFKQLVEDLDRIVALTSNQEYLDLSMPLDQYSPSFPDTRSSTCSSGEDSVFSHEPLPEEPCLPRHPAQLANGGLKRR
Outline: as §1

[6] = target: T6, CSF-1R (Homo sapiens, UniProt P07333)
T6 construct: expressed in transfected cells; host or cells: yeast
T6 sequence (P07333 20-972): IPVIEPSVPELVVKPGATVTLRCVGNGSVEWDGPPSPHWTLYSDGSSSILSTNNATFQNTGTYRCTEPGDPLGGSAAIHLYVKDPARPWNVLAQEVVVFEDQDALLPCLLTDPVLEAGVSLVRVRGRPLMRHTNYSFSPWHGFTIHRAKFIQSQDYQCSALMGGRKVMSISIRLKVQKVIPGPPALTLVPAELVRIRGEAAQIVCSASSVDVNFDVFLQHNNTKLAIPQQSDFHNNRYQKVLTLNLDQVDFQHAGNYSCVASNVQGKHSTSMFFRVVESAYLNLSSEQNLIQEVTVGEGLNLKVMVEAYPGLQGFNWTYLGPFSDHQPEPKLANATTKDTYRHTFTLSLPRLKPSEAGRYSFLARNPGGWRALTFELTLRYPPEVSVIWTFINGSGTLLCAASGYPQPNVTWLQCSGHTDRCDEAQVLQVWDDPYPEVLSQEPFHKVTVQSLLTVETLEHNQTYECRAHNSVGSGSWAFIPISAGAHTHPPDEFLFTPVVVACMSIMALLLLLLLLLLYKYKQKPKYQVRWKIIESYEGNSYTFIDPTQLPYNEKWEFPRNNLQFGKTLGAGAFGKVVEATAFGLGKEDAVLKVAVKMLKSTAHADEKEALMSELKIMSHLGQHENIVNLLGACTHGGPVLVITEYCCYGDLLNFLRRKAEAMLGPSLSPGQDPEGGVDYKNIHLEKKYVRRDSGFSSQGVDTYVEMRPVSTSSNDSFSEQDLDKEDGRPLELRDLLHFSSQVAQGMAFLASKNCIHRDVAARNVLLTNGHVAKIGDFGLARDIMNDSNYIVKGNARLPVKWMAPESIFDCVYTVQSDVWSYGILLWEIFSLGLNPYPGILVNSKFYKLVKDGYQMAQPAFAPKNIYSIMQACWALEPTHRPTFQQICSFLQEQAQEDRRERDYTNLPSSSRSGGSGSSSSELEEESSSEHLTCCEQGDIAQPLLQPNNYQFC
Outline: as §1

[7] = target: T7, ErbB2 (Homo sapiens, UniProt P04626)
T7 construct: expressed in transfected cells; host or cells: yeast
T7 sequence (P04626 23-1255): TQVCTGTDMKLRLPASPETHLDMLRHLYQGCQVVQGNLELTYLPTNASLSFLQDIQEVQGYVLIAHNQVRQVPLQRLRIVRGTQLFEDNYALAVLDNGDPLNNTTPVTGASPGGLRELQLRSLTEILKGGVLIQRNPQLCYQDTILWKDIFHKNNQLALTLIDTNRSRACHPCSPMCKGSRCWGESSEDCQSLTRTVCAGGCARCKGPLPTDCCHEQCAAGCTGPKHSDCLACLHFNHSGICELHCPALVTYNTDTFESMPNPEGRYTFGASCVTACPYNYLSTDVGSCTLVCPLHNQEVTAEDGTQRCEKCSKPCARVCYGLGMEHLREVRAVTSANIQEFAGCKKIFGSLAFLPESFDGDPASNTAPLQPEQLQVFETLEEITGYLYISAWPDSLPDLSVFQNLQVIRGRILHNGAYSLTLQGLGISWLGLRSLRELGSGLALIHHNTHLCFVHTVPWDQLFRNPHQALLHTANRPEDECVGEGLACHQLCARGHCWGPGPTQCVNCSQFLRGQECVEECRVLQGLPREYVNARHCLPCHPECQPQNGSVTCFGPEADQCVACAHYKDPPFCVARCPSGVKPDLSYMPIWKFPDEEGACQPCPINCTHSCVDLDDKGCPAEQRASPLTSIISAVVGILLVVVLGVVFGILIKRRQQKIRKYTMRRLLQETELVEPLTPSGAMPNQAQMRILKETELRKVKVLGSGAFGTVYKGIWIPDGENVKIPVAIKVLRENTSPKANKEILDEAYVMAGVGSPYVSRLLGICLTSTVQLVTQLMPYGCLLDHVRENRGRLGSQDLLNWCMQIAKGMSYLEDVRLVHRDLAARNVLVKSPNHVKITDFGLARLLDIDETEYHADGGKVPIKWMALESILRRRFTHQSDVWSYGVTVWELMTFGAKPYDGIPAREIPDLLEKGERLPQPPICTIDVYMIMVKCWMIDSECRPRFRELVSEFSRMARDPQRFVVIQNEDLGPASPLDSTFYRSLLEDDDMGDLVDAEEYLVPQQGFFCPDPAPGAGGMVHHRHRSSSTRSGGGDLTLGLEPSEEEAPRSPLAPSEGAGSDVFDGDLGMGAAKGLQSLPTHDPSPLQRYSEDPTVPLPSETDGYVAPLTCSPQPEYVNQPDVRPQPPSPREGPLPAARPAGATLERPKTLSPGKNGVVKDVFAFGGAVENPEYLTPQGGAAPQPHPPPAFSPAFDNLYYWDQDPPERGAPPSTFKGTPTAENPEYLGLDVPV
Outline: as §1

| FGFR-3 growth restoration [1] | FLT3 growth restoration [2] | EGFR (L858R) growth restoration [3] | KIT growth restoration [4] | FGFR-1 growth restoration [5] | CSF-1R growth restoration [6] | ErbB2 growth restoration [7] | Compound |
| --- | --- | --- | --- | --- | --- | --- | --- |
| − | − | + | − | − | − | − | COc1cccc(-c2nc3cnccn3c2Nc2cccc(Cl)c2)c1 [compound 7, (3-Chloro-phenyl)-[2-(3-methoxy-phenyl)-imidazo[1,2-a]pyrazin-3-yl]-amine] |
| − | − | + | − | − | − | − | Clc1cccc(Nc2c(-c3ccccc3)nc3cnccn23)c1 [compound 35, (3-Chloro-phenyl)-(2-phenyl-imidazo[1,2-a]pyrazin-3-yl)-amine] |
| − | − | + | − | − | − | − | Cc1nccn2c(Nc3cccc(F)c3)c(-c3ccccc3)nc12 [compound 44, (3-Fluoro-phenyl)-(8-methyl-2-phenyl-imidazo[1,2-a]pyrazin-3-yl)-amine] |
| − | − | − | − | − | − | − | Cc1cccc(Nc2c(-c3ccccc3)nc3cnccn23)c1 [compound 34, (2-Phenyl-imidazo[1,2-a]pyrazin-3-yl)-m-tolyl-amine] |
| − | − | − | − | − | − | − | Brc1cccc(Nc2c(-c3ccccc3)nc3cnccn23)c1 [compound 14, (3-Bromo-phenyl)-(2-phenyl-imidazo[1,2-a]pyrazin-3-yl)-amine] |
| − | − | − | − | − | − | − | Cc1nccn2c(Nc3ccc(F)c(F)c3)c(-c3ccccc3)nc12 [compound 45, (3,4-Difluoro-phenyl)-(8-methyl-2-phenyl-imidazo[1,2-a]pyrazin-3-yl)-amine] |
| − | − | − | − | − | − | − | Clc1ccc(Nc2c(-c3ccccc3)nc3cnccn23)cc1 [compound 16, (4-Chloro-phenyl)-(2-phenyl-imidazo[1,2-a]pyrazin-3-yl)-amine] |
| − | − | + | − | − | − | − | Cc1nccn2c(Nc3cccc(Cl)c3)c(-c3ccccc3)nc12 [compound 3, (3-Chloro-phenyl)-(8-methyl-2-phenyl-imidazo[1,2-a]pyrazin-3-yl)-amine] |
| − | − | − | − | − | − | − | Cc1cccc(Nc2c(-c3ccccc3)nc3c(C)nccn23)c1 [compound 43, (8-Methyl-2-phenyl-imidazo[1,2-a]pyrazin-3-yl)-m-tolyl-amine] |
| − | − | + | − | − | − | − | c1ccc(Nc2c(-c3ccccc3)nc3cnccn23)cc1 [compound 23, Phenyl-(2-phenyl-imidazo[1,2-a]pyrazin-3-yl)-amine] |
| − | − | + | − | − | − | − | Cc1nccn2c(Nc3ccccc3)c(-c3ccccc3)nc12 [compound 39, (8-Methyl-2-phenyl-imidazo[1,2-a]pyrazin-3-yl)-phenyl-amine] |
